# Results taken from PubChem BioAssay (NCI).
#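 Briefly, cells in 96-well plates were exposed to five compound concentrations for 48 h, and endpoints were estimated by linear interpolation. TGI marks complete inhibition of growth.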
# How the values were obtained:
# Test in all cases: inhibition of tumour cell growth, NCI panel, 48 h
# SNB-75 CNS = tested on: SNB-75 CNS
# EKVX NSCLC = tested on: EKVX NSCLC
# PC-3 prostate = tested on: PC-3 prostate
# NCI-H226 lung = tested on: NCI-H226 lung
# NCI/ADR-RES ovarian = tested on: NCI/ADR-RES ovarian
# SNB-19 CNS = tested on: SNB-19 CNS
# SF-268 CNS = tested on: SF-268 CNS
# OVCAR-8 ovarian = tested on: OVCAR-8 ovarian
# U251 CNS = tested on: U251 CNS
# OVCAR-4 ovarian = tested on: OVCAR-4 ovarian
# NCI-H522 lung = tested on: NCI-H522 lung
# SR leukemia = tested on: SR leukemia
# SW-620 colon = tested on: SW-620 colon
# SN12C renal = tested on: SN12C renal
# KM12 colon = tested on: KM12 colon
# MOLT-4 leukemia = tested on: MOLT-4 leukemia
# HCC-2998 colon = tested on: HCC-2998 colon
# UACC-257 melanoma = tested on: UACC-257 melanoma
# SF-295 CNS = tested on: SF-295 CNS
# NCI-H460 lung = tested on: NCI-H460 lung
# MDA-MB-231 breast = tested on: MDA-MB-231 breast
# MDA-MB-435 = tested on: MDA-MB-435
# A498 renal = tested on: A498 renal
# HCT-15 colon = tested on: HCT-15 colon
# MALME-3M melanoma = tested on: MALME-3M melanoma
# CCRF-CEM leukemia = tested on: CCRF-CEM leukemia
# ACHN renal = tested on: ACHN renal
# NCI-H23 lung = tested on: NCI-H23 lung
# SK-MEL-2 melanoma = tested on: SK-MEL-2 melanoma
# DU-145 prostate = tested on: DU-145 prostate
# 786-0 renal = tested on: 786-0 renal
# HL-60(TB) leukemia = tested on: HL-60(TB) leukemia
# MDA-N = tested on: MDA-N
# HS 578T breast = tested on: HS 578T breast
# HOP-62 NSCLC = tested on: HOP-62 NSCLC
# LOX IMVI melanoma = tested on: LOX IMVI melanoma
# A549 NSCLC = tested on: A549 NSCLC
# SK-MEL-28 melanoma = tested on: SK-MEL-28 melanoma
# K-562 leukemia = tested on: K-562 leukemia
# OVCAR-3 ovarian = tested on: OVCAR-3 ovarian
# RPMI-8226 leukemia = tested on: RPMI-8226 leukemia
# HT29 colon = tested on: HT29 colon
# HOP-92 NSCLC = tested on: HOP-92 NSCLC
# T-47D breast = tested on: T-47D breast
# UO-31 renal = tested on: UO-31 renal
# SK-OV-3 ovarian = tested on: SK-OV-3 ovarian
# RXF 393 renal = tested on: RXF 393 renal
# UACC-62 melanoma = tested on: UACC-62 melanoma
# IGROV1 ovarian = tested on: IGROV1 ovarian
# MCF7 breast = tested on: MCF7 breast
# HCT-116 colon = tested on: HCT-116 colon
# BT-549 breast = tested on: BT-549 breast
# COLO 205 colon = tested on: COLO 205 colon
# TK-10 renal = tested on: TK-10 renal
# OVCAR-5 ovarian = tested on: OVCAR-5 ovarian
# SF-539 CNS = tested on: SF-539 CNS
# SK-MEL-5 melanoma = tested on: SK-MEL-5 melanoma
# M14 melanoma = tested on: M14 melanoma
smiles,measurement,setting,value
COC(=O)C1(Cc2ccccc2)Cc2cc3c(cc2C1)CCC3,TGI,SNB-75 CNS,95.4 µM
same,TGI,EKVX NSCLC,60.9 µM
same,TGI,PC-3 prostate,> 100 µM
same,TGI,NCI-H226 lung,63.3 µM
same,TGI,NCI/ADR-RES ovarian,> 100 µM
same,TGI,SNB-19 CNS,> 100 µM
same,TGI,SF-268 CNS,> 100 µM
same,TGI,OVCAR-8 ovarian,88.9 µM
same,TGI,U251 CNS,64.9 µM
same,TGI,OVCAR-4 ovarian,> 100 µM
same,TGI,NCI-H522 lung,56.4 µM
same,TGI,SR leukemia,31.3 µM
same,TGI,SW-620 colon,> 100 µM
same,TGI,SN12C renal,> 100 µM
same,TGI,KM12 colon,76.4 µM
same,TGI,MOLT-4 leukemia,35 µM
same,TGI,HCC-2998 colon,> 100 µM
same,TGI,UACC-257 melanoma,78.8 µM
same,TGI,SF-295 CNS,> 100 µM
same,TGI,NCI-H460 lung,> 100 µM
same,TGI,MDA-MB-231 breast,> 100 µM
same,TGI,MDA-MB-435,35.6 µM
same,TGI,A498 renal,82.4 µM
same,TGI,HCT-15 colon,> 100 µM
same,TGI,MALME-3M melanoma,52.6 µM
same,TGI,CCRF-CEM leukemia,31.6 µM
same,TGI,ACHN renal,> 100 µM
same,TGI,NCI-H23 lung,> 100 µM
same,TGI,SK-MEL-2 melanoma,40.1 µM
same,TGI,DU-145 prostate,> 100 µM
same,TGI,786-0 renal,> 100 µM
same,TGI,HL-60(TB) leukemia,31.3 µM
same,TGI,MDA-N,53.5 µM
same,TGI,HS 578T breast,> 100 µM
same,TGI,HOP-62 NSCLC,> 100 µM
same,TGI,LOX IMVI melanoma,34.7 µM
same,TGI,A549 NSCLC,> 100 µM
same,TGI,SK-MEL-28 melanoma,> 100 µM
same,TGI,K-562 leukemia,41.6 µM
same,TGI,OVCAR-3 ovarian,> 100 µM
same,TGI,RPMI-8226 leukemia,36.5 µM
same,TGI,HT29 colon,24.6 µM
same,TGI,HOP-92 NSCLC,41.2 µM
same,TGI,T-47D breast,75.9 µM
same,TGI,UO-31 renal,> 100 µM
same,TGI,SK-OV-3 ovarian,> 100 µM
same,TGI,RXF 393 renal,50.7 µM
same,TGI,UACC-62 melanoma,> 100 µM
same,TGI,IGROV1 ovarian,> 100 µM
same,TGI,MCF7 breast,42.5 µM
same,TGI,HCT-116 colon,76.9 µM
same,TGI,BT-549 breast,> 100 µM
same,TGI,COLO 205 colon,33.3 µM
same,TGI,TK-10 renal,> 100 µM
same,TGI,OVCAR-5 ovarian,82.6 µM
same,TGI,SF-539 CNS,> 100 µM
same,TGI,SK-MEL-5 melanoma,33.7 µM
same,TGI,M14 melanoma,> 100 µM
